Laboratory results reported in patent publication US8377685B2, “Microfluidic device having stable static gradient for analyzing chemotaxis” (priority 2007, dated 2013).
“Also recorded” adds a separate entry of the source.

Tested on: primary human neutrophils
Assay type: cell-based
Procedure: (§1) Each channel was used of one of four different conditions under investigation: 1) Media control, 2) uniform chemo-attractant, 3) chemo-attractant gradient and 4) chemo-attractant gradient with inhibitor. For conditions 1 and 3 each channel network was wick-filled with EGM2MV cell culture media via the source input port. For condition 2 the channel network was wick-filled with EGM2MV cell culture media containing 10 nM formyl-Met-Leu-Phe (fMLP, Sigma-Aldrich). For condition 4 the channel network was wick-filled with EGM2MV cell culture media containing 5 μM Latrunculin B (Sigma-Aldrich). Next, for conditions 3 and 4, a 1.2 μL drop of 1 μM fMLP was added to the source input using a handheld pipette. For condition 4 the fMLP solution also contained Latrunculin B at the same concentration as the media to ensure a uniform concentration of the inhibitor during the study. This volume flowed into the source volume via passive pumping. Lastly, for all four conditions, a 1.5 μL drop of freshly isolated primary neutrophils at roughly at a concentration of roughly 5,000 cells/μL were added to the cell addition port.
as §1, with “Human neutrophil cell culture media and chemo-attractant solution were prepared using conventional protocols. (See, Nuzzi P A at al., Analysis of neutrophil chemotaxis, Methods in Molecular Biology 370:23-26, 2007). Primary human neutrophils were acquired from donors under approved protocol. (See University of Wisconsin Institutional Review Board and National Institutes of Health Protection concerning protection of human subjects regulations). Four channel networks in a polystyrene device were prepared. Each” for “Each”, “used to test” for “used of”, “different conditions:” for “different conditions under investigation:”

Molecule	direction of displacement vectors of cells	mean total displacement of cells	direction of displacement vectors of cells (preference for migrating up the fMLP gradient) (fMLP gradient with uniform 5 μM Latrunculin B, 52 minutes)	mean total displacement of cells (migration up an fMLP gradient) (fMLP gradient with uniform 5 μM Latrunculin B, cells tracked over 52 minutes)
formyl-Met-Leu-Phe [fMLP]	slight preference for migrating up the channel; also recorded: strong preference for migrating in the direction of increasing concentration of the gradient	migrate further; also recorded: migrated further still		
C/C1=C/C(=O)O[C@@H]2C[C@@H](CC[C@H](C)/C=C\CC1)O[C@@](O)([C@@H]1CSC(=O)N1)C2 [Latrunculin B]			abolished	strongly inhibited
